Test results from paper PMC8286840, “Identifying SARS-CoV-2 antiviral compounds by screening for small molecule inhibitors of Nsp3 papain-like protease” (Biochemical Journal, 2021).
Where a name gives a salt, the structure may show the parent alone. Read-outs that look alike come from different tables or passages of the source.

Columns and labels:
[1] = biological target: T1, SARS-CoV-2 PLpro (nsp3 1564–1878) (Severe acute respiratory syndrome coronavirus 2, UniProt P0DTD1); assay: biochemical; parameters: FRET-quenched peptide (Pro3) cleavage by PLpro, 10 min pre-incubation, slope over 20 min, normalised to no-compound control; details: low concentration screen, read-out: % of control remaining
[2] = biological target: T1, SARS-CoV-2 PLpro (nsp3 1564–1878); assay: biochemical; parameters: FRET-quenched peptide (Pro3) cleavage by PLpro, 10 min pre-incubation, slope over 20 min, normalised to no-compound control; details: high concentration screen, read-out: % of control remaining

CC[n+]1c(/C=C/N(C)c2ccccc2)n(-c2ccccc2)c2ccc(-c3nc4ccccc4s3)cc21 [Akt Inhibitor IV]
remaining activity at 1.25 µM ([1]; Well no.=2311): 102% | remaining activity at 3.75 µM ([2]; Well no.=2311): 101%

CCN(CC)CCCCN1c2ccccc2Oc2ccc(Cl)cc21 [Akt Inhibitor X]
remaining activity at 1.25 µM ([1]; Well no.=2317): 101% | remaining activity at 3.75 µM ([2]; Well no.=2317): 102%

O=c1[nH]c2ccccc2n1C1CCN(Cc2ccc(-c3[nH]c4cc5ncnc5cc4nc3-c3ccccc3)cc2)CC1 [Akt-I-1,2]
remaining activity at 1.25 µM ([1]; Well no.=2755): 101% | remaining activity at 3.75 µM ([2]; Well no.=2755): 98.5%

CN(C)CC(C)(C)CNc1nn2c(-c3ccccc3)nnc2cc1C1CCC1 [Akt-I-1]
remaining activity at 1.25 µM ([1]; Well no.=2707): 107% | remaining activity at 3.75 µM ([2]; Well no.=2707): 106%

CC(N)C(=O)OC(C)(C)Cc1ccc(Cl)cc1 (centres unmarked) [Alaproclate hydrochloride]
remaining activity at 1.25 µM ([1]; Well no.=208): 102% | remaining activity at 3.75 µM ([2]; Well no.=208): 102%

CCNC(=O)[C@@H]1CCCN1C(=O)[C@H](CCCN=C(N)N)NC(=O)[C@H](CC(C)C)NC(=O)[C@@H](C)NC(=O)[C@H](Cc1ccc(O)cc1)NC(=O)[C@H](CO)NC(=O)[C@H](Cc1c[nH]c2ccccc12)NC(=O)[C@H](Cc1cnc[nH]1)NC(=O)[C@@H]1CCC(=O)N1 [Alarelin (Acetate)]
remaining activity at 1.25 µM ([1]; Well no.=8383): 98.8% | remaining activity at 3.75 µM ([2]; Well no.=8383): 97%

CCCSc1ccc2[nH]c(NC(=O)OC)nc2c1 [Albendazole]
remaining activity at 1.25 µM ([1]; Well no.=2083): 103% | remaining activity at 3.75 µM ([2]; Well no.=2083): 105%

CN1CCC(=C2c3ccccc3CCn3c(C=O)cnc32)CC1 [Alcaftadine]
remaining activity at 1.25 µM ([1]; Well no.=6573): 94.6% | remaining activity at 3.75 µM ([2]; Well no.=6573): 91.1%

O=C(NCc1ccc2c(c1)OCO2)c1c(Cl)cccc1Cl [Alda-1]
remaining activity at 1.25 µM ([1]; Well no.=5935): 101% | remaining activity at 3.75 µM ([2]; Well no.=5935): 99.3%

NCCCC(O)(P(=O)(O)O)P(=O)(O)O [Alendronate]
remaining activity at 1.25 µM ([1]; Well no.=2079): 105% | remaining activity at 3.75 µM ([2]; Well no.=2079): 104%

C=C1/C(=C\C=C2/CCC[C@]3(C)[C@@H]([C@H](C)CCCC(C)C)CC[C@@H]23)C[C@@H](O)C[C@@H]1O [Alfacalcidol]
remaining activity at 1.25 µM ([1]; Well no.=1854): 96.4% | remaining activity at 3.75 µM ([2]; Well no.=1854): 99.8%

COc1cc2nc(N(C)CCCNC(=O)C3CCCO3)nc(N)c2cc1OC (centres unmarked) [Alfuzosin]
remaining activity at 1.25 µM ([1]; Well no.=1809): 98.4% | remaining activity at 1.25 µM ([1]; Well no.=6749): 100% | remaining activity at 3.75 µM ([2]; Well no.=1809): 97.8% | remaining activity at 3.75 µM ([2]; Well no.=6749): 92.3%

C=CCc1cc(OC)c(O)c(C(=O)NCCO)c1 [Alibendol]
remaining activity at 1.25 µM ([1]; Well no.=5002): 101% | remaining activity at 3.75 µM ([2]; Well no.=5002): 94.9%

COc1cc(Nc2ncc3c(n2)-c2ccc(Cl)cc2C(c2c(F)cccc2OC)=NC3)ccc1C(=O)O [Alisertib]
remaining activity at 1.25 µM ([1]; Well no.=6164): 103% | remaining activity at 3.75 µM ([2]; Well no.=6164): 103%

COCCCOc1cc(C[C@@H](C[C@H](N)[C@@H](O)C[C@H](C(=O)NCC(C)(C)C(N)=O)C(C)C)C(C)C)ccc1OC [Aliskiren hemifumarate]
remaining activity at 1.25 µM ([1]; Well no.=5148): 107% | remaining activity at 3.75 µM ([2]; Well no.=5148): 104%

O=C1c2ccccc2C(=O)c2c1ccc(O)c2O [Alizarin]
remaining activity at 1.25 µM ([1]; Well no.=5284): 94.6% | remaining activity at 3.75 µM ([2]; Well no.=5284): 95.1%

CC1=C(/C=C/C(C)=C/C=C/C(C)=C/C=O)C(C)(C)CCC1 [All-trans-retinal]
remaining activity at 1.25 µM ([1]; Well no.=7443): 102% | remaining activity at 3.75 µM ([2]; Well no.=7443): 102%

NC(=O)NC1NC(=O)NC1=O (centres unmarked) [Allantoin]
remaining activity at 1.25 µM ([1]; Well no.=6631): 104% | remaining activity at 1.25 µM ([1]; Well no.=8145): 106% | remaining activity at 3.75 µM ([2]; Well no.=6631): 106% | remaining activity at 3.75 µM ([2]; Well no.=8145): 97.6%

CC(=O)[C@H]1CC[C@H]2[C@@H]3CC[C@H]4C[C@H](O)CC[C@]4(C)[C@H]3CC[C@]12C [Allopregnanolone]
remaining activity at 1.25 µM ([1]; Well no.=6197): 105% | remaining activity at 3.75 µM ([2]; Well no.=6197): 107%

Oc1ncnc2[nH]ncc12 [Allopurinol]
remaining activity at 1.25 µM ([1]; Well no.=102): 106% | remaining activity at 1.25 µM ([1]; Well no.=2077): 104% | remaining activity at 3.75 µM ([2]; Well no.=102): 105% | remaining activity at 3.75 µM ([2]; Well no.=2077): 104%

O=c1[nH]c(=O)c2nc3ccccc3nc2[nH]1 [Alloxazine]
remaining activity at 1.25 µM ([1]; Well no.=354): 90.3% | remaining activity at 3.75 µM ([2]; Well no.=354): 88.5%

C=CCNC(N)=S [Allylthiourea]
remaining activity at 1.25 µM ([1]; Well no.=5076): 106% | remaining activity at 3.75 µM ([2]; Well no.=5076): 106%

CN(C)CCc1c[nH]c2ccc(CS(=O)(=O)N3CCCC3)cc12 [Almotriptan (malate)]
remaining activity at 1.25 µM ([1]; Well no.=6271): 106% | remaining activity at 3.75 µM ([2]; Well no.=6271): 106%

O=C1c2cccc(O)c2C(=O)c2c(O)cc(CO)cc21 [Aloe-emodine]
remaining activity at 1.25 µM ([1]; Well no.=3156): 105% | remaining activity at 3.75 µM ([2]; Well no.=3156): 102%

Cn1c(=O)cc(N2CCC[C@@H](N)C2)n(Cc2ccccc2C#N)c1=O [Alogliptin (SYR-322)]
remaining activity at 1.25 µM ([1]; Well no.=5179): 104% | remaining activity at 3.75 µM ([2]; Well no.=5179): 97.5%

O=C1c2c(O)cccc2C([C@@H]2O[C@H](CO)[C@@H](O)[C@H](O)[C@H]2O)c2cc(CO)cc(O)c21 (some centres unmarked) [Aloin]
remaining activity at 1.25 µM ([1]; Well no.=8338): 99.2% | remaining activity at 3.75 µM ([2]; Well no.=8338): 97.8%

CCCCc1c(-c2ccc(O)cc2)[nH]c2nccnc12 [Aloisine A, RP107]
remaining activity at 1.25 µM ([1]; Well no.=2318): 97.4% | remaining activity at 3.75 µM ([2]; Well no.=2318): 95.3%

CCCCc1c(-c2ccc(OC)cc2)[nH]c2nccnc12 [Aloisine, RP106]
remaining activity at 1.25 µM ([1]; Well no.=2320): 96.9% | remaining activity at 3.75 µM ([2]; Well no.=2320): 94.7%

C1=C2CCCN[C@H]2[C@@H]2C[C@H]1[C@H]1CCCCN1C2 [Aloperine]
remaining activity at 1.25 µM ([1]; Well no.=5240): 94.5% | remaining activity at 3.75 µM ([2]; Well no.=5240): 94%

Cc1[nH]cnc1CN1CCc2c(c3ccccc3n2C)C1=O [Alosetron (Hydrochloride)]
remaining activity at 1.25 µM ([1]; Well no.=8289): 105% | remaining activity at 3.75 µM ([2]; Well no.=8289): 99.5%

C[C@]12CC[C@@H]3c4ccc(O)cc4CC[C@H]3[C@@H]1CC[C@H]2O [Alpha-Estradiol]
remaining activity at 1.25 µM ([1]; Well no.=6693): 98.9% | remaining activity at 3.75 µM ([2]; Well no.=6693): 93.1%

CCCN(CCC)C(=O)Cc1c(-c2ccc(Cl)cc2)nc2ccc(Cl)cn12 [Alpidem]
remaining activity at 1.25 µM ([1]; Well no.=5821): 108% | remaining activity at 3.75 µM ([2]; Well no.=5821): 106%

C=CCc1ccccc1OCC(O)CNC(C)C (centres unmarked) [Alprenolol (hydrochloride)]
remaining activity at 1.25 µM ([1]; Well no.=6327): 102% | remaining activity at 3.75 µM ([2]; Well no.=6327): 103%

C=CCc1ccccc1OCC(O)CNC(C)C (centres unmarked) [Alprenolol hydrochloride]
remaining activity at 1.25 µM ([1]; Well no.=342): 95.5% | remaining activity at 3.75 µM ([2]; Well no.=342): 97.7%
